# Test results: patent US20230123334A1, “AMINO LIPID COMPOUND, PREPARATION METHOD THEREFOR, AND APPLICATION THEREOF” (SHENZHEN SHENXIN BIOTECHNOLOGY CO., LTD., priority 2020, published 2023)
# Tested on: HEK293 cells
# Experiment: Preliminary screening as DNA vectors, GFP transfection of HEK293 cells
# Assay type: cell-based
# Details: amino lipid/DOPE liposome with 75 ng plasmid DNA (psin-EGFP-IRES-Puro); number of GFP-expressing cells divided by total nuclei (Hoechst)
# Summary of the method: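 HEK293 cells in DMEM/10% FBS transfected with 75 ng EGFP plasmid per well complexed with amino lipid/DOPE liposomes in pH 5.6 sodium acetate. Hoechst nuclear stain added 20-24 h post-transfection, then cells cultured another 20-24 h. Confocal imaging gives GFP-positive cells as % of total nuclei.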
row,SMILES,Absolute DNA transfection efficiency in HEK293 cells [%]
1,CCCCCCCCCCCSc1nc(NCCCCCCCC)nc(NCC2CCN(C)CC2)n1 [S11N8 D10],33.4
2,CCCCCCCCNc1nc(NCCN(C)C)nc(SCCCCCC)n1 [S6N8 D1],0.2
3,CCCCCCCCCCCNc1nc(NCCCN(C)C)nc(SCCCCCCCC)n1 [S8N11 D6],99.4
4,CCCCCCCCCCCCCNc1nc(NCCN(C)C)nc(SCCCCCCCCCCC)n1 [S11N13 D1],10.6
5,CCCCCCCCCCCCNc1nc(NCCN(CC)CC)nc(SCCCCCCCC)n1 [S8N12 D7],9.5
6,CCCCCCCCCCSc1nc(NCCCN2CCN(C)CC2)nc(SCCCCCCC)n1 [S7S10 D9],23.9
7,CCCCCCCCCCCCSc1nc(NCCCCCCCCC)nc(NCCN2CCCCC2)n1 [S12N9 D4],0.1
8,CCCCCCCCCCCSc1nc(NCCCCCC)nc(NCCCN2CCOCC2)n1 [S11N6 D8],13.3
9,CCCCCCCCCCSc1nc(NCCN2CCCC2)nc(SCCCCCC)n1 [S6S10 D3],4.4
10,CCCCCCCCCCSc1nc(NCCN(CC)CC)nc(SCCCCCCCC)n1 [S8S10 D7],11.4
11,CCCCCCCCCCCCCCCNc1nc(NCCN2CCCC2)nc(SCCCCCCCCCCCCCC)n1 [S14N15 D3],1.0
12,CCCCCCCCCCCCCCSc1nc(NCC2CCN(C)CC2)nc(SCCCCCC)n1 [S6S14 D10],53.3
13,CCCCCCCCSc1nc(NCCCCCC)nc(NCCCN2CCOCC2)n1 [S8N6 D8],0.0
14,CCCCCCCCCCCCCCSc1nc(NCCCCCCC)nc(NCCN2CCCCC2)n1 [S14N7 D4],3.7
15,CCCCCCCCCCCCSc1nc(NCC2CCN(C)CC2)nc(N(CCCCCCCCCCCC)CCCCCCCCCCCC)n1 [S12^2N12 D10],0.1
16,CCCCCCCCCCCCCCCCCCSc1nc(NCCCN(C)C)nc(SCCCCCC)n1 [S6S18 D6],0.0
17,CCCCCCCCCCCCN(CCCCCCCCCCCC)c1nc(NCCN2CCCC2)nc(SCCCCCC)n1 [S6^2N12 D3],0.1
18,CCCCCCNc1nc(NCCN2CCOCC2)nc(SCCCCCC)n1 [S6N6 D2],0.0
19,CCCCCCCCCCSc1nc(NCC2CCN(C)CC2)nc(SCCCCCCCC)n1 [S8S10 D10],26.2
20,CCCCCCCCCCCCCCCCSc1nc(NCCCCCCC)nc(NCCN2CCN(C)CC2)n1 [S16N7 D5],10.1
21,CCCCCCCCCCCCCNc1nc(NCCN2CCN(C)CC2)nc(SCCCCCCCCC)n1 [S9N13 D5],27.9
22,CCCCCCCNc1nc(NCCCN2CCOCC2)nc(SCCCCCCC)n1 [S7N7 D8],5.3
23,CCCCCCCCCCCCCCCCSc1nc(NCCCCCCCCCCCCCCC)nc(NCCN2CCCC2)n1 [S16N15 D3],0.0
24,CCCCCCCCCCCSc1nc(NCCCCCCCC)nc(NCCN(C)C)n1 [S11N8 D1],19.8
25,CCCCCCCCCCCCCNc1nc(NCCN(C)C)nc(SCCCCCCCCCC)n1 [S10N13 D1],6.1
26,CCCCCCCCCCCCCCSc1nc(NCCCCCCCCC)nc(NCCN2CCN(C)CC2)n1 [S14N9 D5],16.9
27,CCCCCCCCCCCCCCCCCCSc1nc(NCCCCCCC)nc(NCCCN(C)C)n1 [S18N7 D6],20.7
28,CCCCCCCCCCCCN(CCCCCCCCCCCC)c1nc(NCCCN(C)C)nc(SCCCCCCCCC)n1 [S9^2N12 D6],1.1
29,CCCCCCCCCCSc1nc(NCCCCCCC)nc(NCCN(CC)CC)n1 [S10N7 D7],8.1
30,CCCCCCCCCCCCCCCCSc1nc(NCCCCCCCCC)nc(NCC2CCN(C)CC2)n1 [S16N9 D10],6.9
